Assay results reported in patent US20240190838A1, “LZK-TARGETING DEGRADERS AND METHODS OF USE” (The U.S.A., as represented by the Secretary, Department of …, priority 2020, published 2024).

Assays:
[1] = Pharmacokinetics in female NSG mice; format: in vivo; settings: single IP 50 mg/kg
Description: Drug concentrations in plasma and tissue samples were measured by a qualified UPLC-MS/MS method with a Waters Acquity I-Class UPLC interfaced with a Waters TQ-S mass spectrometer. The lower limit of quantitation (LLOQ) was 1 ng/mL for plasma and 1 ng/g tissue for liver, kidney, lung and brain. PK parameters were calculated using the non-compartmental method of the pharmacokinetic software package Phoenix WinNonlin, version 6.2 (Certara, St. Louis, MO). The area under the plasma concentration versus time curve (AUC) was calculated using the linear trapezoidal method. […] The apparent terminal half-life (t1/2) was calculated as 0.693/λ.
In vitro ADME properties of targeted degraders 3 and 7 were studied with the standard Tier I assays, i.e. kinetic solubility assay, parallel artificial membrane permeability assay (PAMPA) and rat liver microsomal (RLM) stability assay (Sun et al., Bioorg Med Chem 2019, 27(14):3110-4; Sun et al., Bioorg Med Chem 2017, 25(3):1266-76; Shah et al., Drug Metab Dispos 2016, 44(10):1653-61). The pharmacokinetics (PK) of targeted degraders 3 and 7 were determined in female NSG mice (The Jackson Laboratory; body weight range from 17-25 grams) after a single intraperitoneal injection of 50 mg/kg. […]

[2] = Kinetic solubility assay; format: physicochemical; settings: kinetic from dmso stock
[3] = biological target: T1, LZK (Homo sapiens, UniProt O43283); assay: LZK degradation (doxycycline-induced LZK expression, immunoblot) in CAL33 cells; format: cell-based; parameters: V5 (named only in the vector); expressed in transfected cells; host or cells: CAL33 HNSCC cells, lentiviral T-REx system, induced with doxycycline
T1 sequence (O43283 1-966): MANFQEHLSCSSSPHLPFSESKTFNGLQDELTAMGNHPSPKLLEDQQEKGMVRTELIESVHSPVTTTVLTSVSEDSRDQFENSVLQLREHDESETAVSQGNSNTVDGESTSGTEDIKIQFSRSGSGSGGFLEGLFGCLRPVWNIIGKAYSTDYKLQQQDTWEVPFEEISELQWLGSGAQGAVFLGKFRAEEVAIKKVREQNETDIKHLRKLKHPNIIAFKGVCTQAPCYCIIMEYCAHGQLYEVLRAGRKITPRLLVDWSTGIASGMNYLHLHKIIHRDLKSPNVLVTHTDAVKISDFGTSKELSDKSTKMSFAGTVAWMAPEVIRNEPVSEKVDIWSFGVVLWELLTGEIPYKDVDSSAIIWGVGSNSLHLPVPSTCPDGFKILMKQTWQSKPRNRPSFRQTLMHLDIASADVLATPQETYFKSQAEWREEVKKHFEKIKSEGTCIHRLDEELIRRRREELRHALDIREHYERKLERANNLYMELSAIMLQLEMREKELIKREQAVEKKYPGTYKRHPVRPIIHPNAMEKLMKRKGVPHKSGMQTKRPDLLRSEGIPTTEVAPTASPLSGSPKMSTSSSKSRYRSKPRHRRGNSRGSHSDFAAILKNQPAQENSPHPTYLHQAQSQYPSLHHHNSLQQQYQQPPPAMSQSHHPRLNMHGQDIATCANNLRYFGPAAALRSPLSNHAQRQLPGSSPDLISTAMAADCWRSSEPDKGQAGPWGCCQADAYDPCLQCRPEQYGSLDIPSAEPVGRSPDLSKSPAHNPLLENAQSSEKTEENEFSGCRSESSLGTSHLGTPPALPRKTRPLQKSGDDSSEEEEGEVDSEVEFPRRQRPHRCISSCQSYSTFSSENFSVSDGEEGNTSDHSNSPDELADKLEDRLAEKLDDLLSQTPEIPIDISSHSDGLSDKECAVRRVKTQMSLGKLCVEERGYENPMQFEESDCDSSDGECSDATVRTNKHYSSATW
Excerpt: The ViraPower HiPerform T-REx Gateway Expression System (Invitrogen) was used to generate cells with tetracycline-inducible expression of LZK. In brief, wild-type (WT) or drug-resistant mutant (Q240S) LZK (cloned into pLenti6.3/TO/V5-DEST vector) and pLenti3.3/TR (for tetracycline repressor expression) were transfected into 293FT cells using Lipofectamine 2000 to generate lentiviral stock. Cell lines were generated by antibiotic selection (blasticidin [Gibco] and geneticin [Gibco]). Doxycycline (Sigma-Aldrich) was used at 1 μg/mL to induce LZK expression.
(§1) Generally, cells were plated in six-well or 35-mm plates for 24 hours, after which doxycycline was added or treatment with specific inhibitor was administered using […] for 48 hours. After appropriate treatment time, cells were washed with ice-cold phosphate-buffered saline without Ca and Mg (Quality Biological) and then lysed on ice with RIPA buffer (50 mM NaCl, 1.0% o IGEPAL® CA-630, 0.5% o sodium deoxycholate, 0.10% SDS, 50 mM Tris, pH 8.0) (Sigma-Aldrich) supplemented with protease inhibitor tablet (Sigma-Aldrich) and phosphatase inhibitor cocktails 2 and 3 (Sigma-Aldrich) followed by centrifugation at 15,000 rpm for 10 minutes at 4° C. Protein concentrations were determined from the cell lysate by using 660 nm Protein Assay Reagent (Pierce). Cell extracts were denatured, subjected to SDS-PAGE, transferred to PVDF membranes (Bio-Rad) and blocked for 2 hours using 5 bovine serum albumin (BSA) in phosphate-buffered saline and 0.10 Tween® 20 (PBS-T). The membranes were incubated with the specific antibodies overnight in […] at 4° C. followed by a 1 hour incubation with the appropriate horseradish peroxidase-conjugated secondary antibodies and signal was detected by chemiluminescence (Thermo Fisher).

[4] = tested on: cyclins and cyclin-dependent kinases; assay: Abundance of CDKs and cyclins in CAL33 cells; format: cell-based; settings: CAL33, 48 hours
Description: as §1

Structure (SMILES): Cc1ncsc1-c1ccc([C@H](C)NC(=O)[C@@H]2C[C@@H](O)CN2C(=O)[C@@H](NC(=O)CCCCCCC(=O)N2CCC(c3cc(Nc4cc(C#N)ccn4)nc(N4CCC(F)(F)C4)c3)CC2)C(C)(C)C)cc1 [Compound 3]
- tissue distribution and drug characteristics [1]: variable tissue distribution and overall promising drug characteristics
- solubility [2]: < 1 µg/mL
- LZK degradation ([3]; 1 μM for 48 hours): degraded LZK
- rescue of degrader-mediated loss of LZK expression by MG132 ([3]; two-hour pretreatment MG132 (3 μM), degrader 1 μM 24 hours): rescued by adding a proteasome inhibitor (MG132)
- rescue of degrader-mediated loss of LZK expression by MLN4924 ([3]; two-hour pretreatment MLN4924 (500 nM), degrader 1 μM 24 hours): rescued with MLN4924
- expression of cyclins and cyclin-dependent kinases [4]: decreased expression of cyclins and cyclin-dependent kinases
